Measurements: US20260158011A1 (Achieve Life Sciences, Inc., priority 2023, published 2026)
Read-outs that look alike come from different tables or passages of the source.

System: adult daily cigarette smokers
[1] = drug reduction Day 35, first Insomnia listing, pooled blinded
[2] = drug reduction Day 35, pooled blinded
[3] = drug reduction Day 35, second Insomnia listing, pooled blinded
[4] = drug reduction Day 42, pooled blinded
[5] = drug reduction Day 49, pooled blinded
[6] = drug reduction Day 55, pooled blinded
[7] = drug reduction Day 58, pooled blinded
[8] = drug reduction Day 63, pooled blinded
[9] = follow up period, start day 86, resolution day 87, pooled blinded
[10] = follow up period, start day 87, resolution day 90, pooled blinded
[11] = follow up period, start day 87, resolution day 96, pooled blinded
[12] = follow up period, start day 102, resolution day 105, pooled blinded
[13] = follow up period, start day 104, resolution day 105, pooled blinded
[14] = follow up period, start day 107, resolution day 111, pooled blinded
[15] = follow up period, start day 112, resolution day 113, pooled blinded
[16] = follow up period, start day 115, resolution day 120, pooled blinded
[17] = follow up period, start day 119, resolution day 139, pooled blinded
[18] = follow up period, start day 146, no resolution day, pooled blinded
[19] = follow up period, start day 148, resolution day 152, pooled blinded
[20] = follow up period, start day 151, resolution day 161, pooled blinded
[21] = follow up period, start day 161, resolution day 161, pooled blinded
[22] = follow up period, start day 180, no resolution day, pooled blinded

Protocol: Subjects are randomized to one of the three arms A, B, or C. In Arm A, subjects are treated with a placebo for 12 weeks plus behavioral support. In Arm B, subjects are treated with 3.0 mg cytisinicline TID for 6 weeks followed by a placebo for 6 weeks plus behavioral support. In Arm C, subjects are treated with 3.0 mg cytisinicline TID for 12 weeks plus behavioral support.
The safety objectives of the study will be the following: • To evaluate the safety profile of 3.0 mg TID cytisinicline compared to placebo (e.g., Arm B versus Arm A and Arm C versus Arm A); • To compare the safety profiles of Arm B subjects versus Arm C subjects with respect to adverse events occurring after Week 6 on the study.
The population for this study will be male or female adults who are daily cigarette smokers, intending to quit smoking, and are willing to set a quit date that is within 5 to 7 days of the start of treatment. Study treatment will start the day after randomization.
Safety assessments at clinic visits will occur on Day 2 and Day 7 during Week 1 and then weekly throughout the Treatment Period. Laboratory hematology and chemistry assessments will be made on Day 7, Week 6, and Week 12 (End of Treatment “EOT”) during the Treatment Period. Any ongoing adverse events at Week 12 will be followed until resolved or determined to be chronic. The end of study is defined as the last follow-up visit (up to the Week 24 visit) for the last subject.
The Treatment Period will begin on the day after randomization. Study treatment will be blinded, and subjects will take one study tablet three times during the day, approximately 5 hours apart. Subjects randomly assigned to Arm A will take one placebo tablet at each dosing per day for 12 weeks. Arm B subjects will take one cytisinicline tablet at each dosing per day for the first 6 weeks followed by one placebo tablet at each dosing per day for the last 6 weeks. Arm C subjects will take one cytisinicline tablet at each dosing per day for 12 weeks.
Laboratory (hematology and chemistry) evaluations will be performed at the Week 1, Week 6, and Week 12 clinic visits using a central laboratory.
Safety will be assessed by consideration of all adverse events reported by or elicited from the subject and abnormalities detected on hematology and serum chemistry tests. Worsening of other pre-existing medical conditions and any changes to concomitant medications/treatments will also be taken into account in this evaluation.
Routine laboratory safety samples will be analyzed at screening and at clinic visits as identified in Table 15 for each subject by a central laboratory. […] Clinically significant abnormalities occurring during the study will be recorded on the AE page. The reference ranges for laboratory parameters will also be entered in the database and filed in the Investigator site file.
Safety assessments will include reported adverse events, laboratory test results, and vital signs. Safety variables will be summarized for the Safety Analysis Set (SAS), defined as all randomized subjects who take at least one dose of study drug.
Adverse events (AEs) will be coded using the MedDRA dictionary. Coding will include system organ class (SOC) and preferred term (PT). All verbatim descriptions and coded terms will be listed for all AEs.

With `O=c1cccc2n1C[C@@H]1CNC[C@H]2C1` [cytisine, (−)-Cytisine] the “Dose reduction for Insomnia: Outcome” value [1] was “Recovered/Resolved”, the “Dose reduction for Insomnia: Relatedness” value [1] was “Probable” and the “Dose reduction for Insomnia: Severity” value [1] was “Moderate”. The “Dose reduction for Burning Eyes: Outcome” value [2] was “Recovered/Resolved”, the “Dose reduction for Burning Eyes: Relatedness” value [2] was “Possible” and the “Dose reduction for Burning Eyes: Severity” value [2] was “Moderate”. For the same compound, the “Dose reduction for Headache: Outcome” value [2] was “Recovered/Resolved”, the “Dose reduction for Headache: Relatedness” value [2] was “Possible” and the “Dose reduction for Headache: Severity” value [2] was “Moderate”. For the same compound, the “Dose reduction for Nausea: Outcome” value [2] was “Recovered/Resolved”, the “Dose reduction for Nausea: Relatedness” value [2] was “Possible” and the “Dose reduction for Nausea: Severity” value [2] was “Moderate”. For the same compound, the “Dose reduction for Sinus Congestion: Outcome” value [2] was “Recovered/Resolved”, the “Dose reduction for Sinus Congestion: Relatedness” value [2] was “Possible” and the “Dose reduction for Sinus Congestion: Severity” value [2] was “Moderate”. For the same compound, the “Dose reduction for Sinus Pressure: Outcome” value [2] was “Recovered/Resolved”, the “Dose reduction for Sinus Pressure: Relatedness” value [2] was “Possible” and the “Dose reduction for Sinus Pressure: Severity” value [2] was “Moderate”. The “Dose reduction for Insomnia: Outcome” value [3] was “Recovered/Resolved”, the “Dose reduction for Insomnia: Relatedness” value [3] was “Possible” and the “Dose reduction for Insomnia: Severity” value [3] was “Moderate”. The “Dose reduction for Difficulty Falling Asleep: Outcome” value [4] was “Recovered/Resolved”, the “Dose reduction for Difficulty Falling Asleep: Relatedness” value [4] was “Possible” and the “Dose reduction for Difficulty Falling Asleep: Severity” value [4] was “Moderate”. For the same compound, the “Dose reduction for Restless Leg Syndrome: Outcome” value [5] was “Recovered/Resolved”, the “Dose reduction for Restless Leg Syndrome: Relatedness” value [5] was “Possible” and the “Dose reduction for Restless Leg Syndrome: Severity” value [5] was “Moderate”. For the same compound, the “Dose reduction for Memory Loss: Outcome” value [6] was “Recovered/Resolved”, the “Dose reduction for Memory Loss: Relatedness” value [6] was “Possible” and the “Dose reduction for Memory Loss: Severity” value [6] was “Moderate”. The “Dose reduction for Bilateral Foot Swelling: Outcome” value [7] was “Recovered/Resolved”, the “Dose reduction for Bilateral Foot Swelling: Relatedness” value [7] was “Possible” and the “Dose reduction for Bilateral Foot Swelling: Severity” value [7] was “Mild”. The “Dose reduction for Facial Swelling (Forehead Area): Outcome” value [7] was “Recovered/Resolved”, the “Dose reduction for Facial Swelling (Forehead Area): Relatedness” value [7] was “Possible” and the “Dose reduction for Facial Swelling (Forehead Area): Severity” value [7] was “Mild”. The “Dose reduction for Right Hand Swelling: Outcome” value [7] was “Recovered/Resolved”, the “Dose reduction for Right Hand Swelling: Relatedness” value [7] was “Possible” and the “Dose reduction for Right Hand Swelling: Severity” value [7] was “Mild”. The “Dose reduction for Headache: Outcome” value [8] was “Recovered/Resolved”, the “Dose reduction for Headache: Relatedness” value [8] was “Possible” and the “Dose reduction for Headache: Severity” value [8] was “Mild”. The “Serious adverse event Post Surgical Complications: Causality” value [9] was “Not”, the “Serious adverse event Post Surgical Complications: Outcome” value [9] was “Fatal” and the “Serious adverse event Post Surgical Complications: Severity/Intensity” value [9] was “Severe”. For the same compound, the “Serious adverse event Worsening Fatigue: Causality” value [10] was “Not”, the “Serious adverse event Worsening Fatigue: Outcome” value [10] was “Recovered/Resolved” and the “Serious adverse event Worsening Fatigue: Severity/Intensity” value [10] was “Moderate”. The “Serious adverse event Coronary Atherosclerosis: Causality” value [11] was “Not”, the “Serious adverse event Coronary Atherosclerosis: Outcome” value [11] was “Recovered/Resolved” and the “Serious adverse event Coronary Atherosclerosis: Severity/Intensity” value [11] was “Severe”. For the same compound, the “Serious adverse event Acute Cholecystitis: Causality” value [12] was “Not”, the “Serious adverse event Acute Cholecystitis: Outcome” value [12] was “Recovered/Resolved” and the “Serious adverse event Acute Cholecystitis: Severity/Intensity” value [12] was “Moderate”. For the same compound, the “Serious adverse event Transient Ischemic Attack: Causality” value [13] was “Not”, the “Serious adverse event Transient Ischemic Attack: Outcome” value [13] was “Recovered/Resolved” and the “Serious adverse event Transient Ischemic Attack: Severity/Intensity” value [13] was “Severe”. The “Serious adverse event Perforated Bowel: Causality” value [14] was “Not”, the “Serious adverse event Perforated Bowel: Outcome” value [14] was “Recovered/Resolved” and the “Serious adverse event Perforated Bowel: Severity/Intensity” value [14] was “Severe”. For the same compound, the “Serious adverse event Abscess on Right Groin Area: Causality” value [15] was “Not”, the “Serious adverse event Abscess on Right Groin Area: Outcome” value [15] was “Recovered/Resolved” and the “Serious adverse event Abscess on Right Groin Area: Severity/Intensity” value [15] was “Severe”. For the same compound, the “Serious adverse event COPD Exacerbation: Causality” value [16] was “Not”, the “Serious adverse event COPD Exacerbation: Outcome” value [16] was “Recovered/Resolved” and the “Serious adverse event COPD Exacerbation: Severity/Intensity” value [16] was “Severe”. For the same compound, the “Serious adverse event Sepsis: Causality” value [16] was “Unlikely”, the “Serious adverse event Sepsis: Outcome” value [16] was “Recovered/Resolved” and the “Serious adverse event Sepsis: Severity/Intensity” value [16] was “Severe”. For the same compound, the “Serious adverse event Pneumonia: Causality” value [17] was “Not”, the “Serious adverse event Pneumonia: Outcome” value [17] was “Recovered/Resolved” and the “Serious adverse event Pneumonia: Severity/Intensity” value [17] was “Severe”. The “Serious adverse event Acute Kidney Injury Superimposed to Chronic Kidney Disease: Causality” value [18] was “Unlikely”, the “Serious adverse event Acute Kidney Injury Superimposed to Chronic Kidney Disease: Outcome” value [18] was “Not Recovered/Not” and the “Serious adverse event Acute Kidney Injury Superimposed to Chronic Kidney Disease: Severity/Intensity” value [18] was “Severe”. The “Serious adverse event Ureterolithiasis: Causality” value [18] was “Unlikely”, the “Serious adverse event Ureterolithiasis: Outcome” value [18] was “Not Recovered/Not” and the “Serious adverse event Ureterolithiasis: Severity/Intensity” value [18] was “Severe”. The “Serious adverse event Pneumonia: Causality” value [19] was “Not”, the “Serious adverse event Pneumonia: Outcome” value [19] was “Recovered/Resolved” and the “Serious adverse event Pneumonia: Severity/Intensity” value [19] was “Severe”. The “Serious adverse event Dyspnea: Causality” value [20] was “Unlikely”, the “Serious adverse event Dyspnea: Outcome” value [20] was “Recovered/Resolved” and the “Serious adverse event Dyspnea: Severity/Intensity” value [20] was “Severe”. For the same compound, the “Serious adverse event Stab Wound: Causality” value [21] was “Not”, the “Serious adverse event Stab Wound: Outcome” value [21] was “Fatal” and the “Serious adverse event Stab Wound: Severity/Intensity” value [21] was “Severe”. For the same compound, the “Serious adverse event Dyspnea: Causality” value [22] was “Not”, the “Serious adverse event Dyspnea: Outcome” value [22] was “Not Recovered/Not” and the “Serious adverse event Dyspnea: Severity/Intensity” value [22] was “Severe”. For the same compound, the “Psychiatric adverse event Abnormal dreams, %” value (pooled blinded data) was “(7.5) %”, the “Psychiatric adverse event Acute stress disorder, %” value (pooled blinded data) was “(0.1) %” and the “Psychiatric adverse event Adjustment disorder with depressed mood, %” value (pooled blinded data) was “(0.1) %”. For the same compound, the “Psychiatric adverse event Affect lability, %” value (pooled blinded data) was “(0.1) %”, the “Psychiatric adverse event Anhedonia, %” value (pooled blinded data) was “(0.5) %” and the “Psychiatric adverse event Anxiety, %” value (pooled blinded data) was “(2.5) %”. For the same compound, the “Psychiatric adverse event Attention deficit hyperactivity disorder, %” value (pooled blinded data) was “(0.1) %”, the “Psychiatric adverse event Bipolar disorder, %” value (pooled blinded data) was “(0.1) %” and the “Psychiatric adverse event Bruxism, %” value (pooled blinded data) was “(0.1) %”. The “Psychiatric adverse event Depressed mood, %” value (pooled blinded data) was “(0.5) %”, the “Psychiatric adverse event Depression, %” value (pooled blinded data) was “(2.0) %” and the “Psychiatric adverse event Initial insomnia, %” value (pooled blinded data) was “(0.3) %”. For the same compound, the “Psychiatric adverse event Insomnia, %” value (pooled blinded data) was “(10.2) %”, the “Psychiatric adverse event Irritability, %” value (pooled blinded data) was “(1.7) %” and the “Psychiatric adverse event Major depression, %” value (pooled blinded data) was “(0.1) %”. The “Psychiatric adverse event Mood swings, %” value (pooled blinded data) was “(0.1) %”, the “Psychiatric adverse event Nightmare, %” value (pooled blinded data) was “(1.1) %” and the “Psychiatric adverse event Panic attack, %” value (pooled blinded data) was “(0.3) %”. The “Psychiatric adverse event Paranoia, %” value (pooled blinded data) was “(0.1) %”, the “Psychiatric adverse event Post-traumatic stress disorder, %” value (pooled blinded data) was “(0.1) %” and the “Psychiatric adverse event Restlessness, %” value (pooled blinded data) was “(0.3) %”. For the same compound, the “Psychiatric adverse event Sleep disorder, %” value (pooled blinded data) was “(0.5) %”, the “Psychiatric adverse event Somnambulism, %” value (pooled blinded data) was “(0.1) %” and the “Psychiatric adverse event Stress, %” value (pooled blinded data) was “(0.1) %”. The “Psychiatric adverse event Suicidal ideation, %” value (pooled blinded data) was “(0.1) %”, the “Psychiatric adverse event Suicide attempt, %” value (pooled blinded data) was “(0.3) %” and the “Psychiatric disorders (any psychiatric reported adverse event), %” value (pooled blinded data) was “(22.9) %”. The “Abnormal lab AE related to study drug, Elevated ALT Level: Outcome of Adverse Event” value (start Day 29, dose not changed) was “Recovered/Resolved”, the “Abnormal lab AE related to study drug, Elevated ALT Level: Severity” value (start Day 29, dose not changed) was “Mild” and the “Abnormal lab AE related to study drug, Elevated AST Level: Outcome of Adverse Event” value (start Day 29, dose not changed) was “Recovered/Resolved”. The “Abnormal lab AE related to study drug, Elevated AST Level: Severity” value (start Day 29, dose not changed) was “Mild”, the “Abnormal lab AE related to study drug, Elevated Hemoglobin: Outcome of Adverse Event” value (start Day 85) was “Recovered/Resolved” and the “Abnormal lab AE related to study drug, Low White Blood Count: Outcome of Adverse Event” value (start Day 85) was “Not Recovered/Not”. The “Abnormal lab AE related to study drug, Elevated ALT: Outcome of Adverse Event” value (start Day 169) was “Not Recovered/Not”, the “Abnormal lab AE related to study drug, Elevated ALT: Severity” value (start Day 169) was “Moderate” and the “Abnormal lab AE related to study drug, Low White Blood Count: Parameter value at AE” value (value at screening 5.1 × 10^9/L, start Day 85) was 2.5e+09 L⁻¹. For the same compound, the “Abnormal lab AE related to study drug, Elevated ALT Level: Parameter value at AE” value (value at screening 25 IU/L, start Day 29, dose not changed) was 195 IU/L, the “Abnormal lab AE related to study drug, Elevated AST Level: Parameter value at AE” value (value at screening 29 IU/L, start Day 29, dose not changed) was 129 IU/L and the “Abnormal lab AE related to study drug, Elevated ALT: Parameter value at AE” value (value at screening 50 IU/L, start Day 169) was 82 IU/L. For the same compound, the “Abnormal lab AE related to study drug, Elevated Hemoglobin: Parameter value at AE” value (value at screening 158 g/L, start Day 85) was 130 g/L.
